Measurements from patent US10851102B2, “Imidazole and triazole containing bicyclic compounds as JAK inhibitors” (THERAVANCE BIOPHARMA R&D IP, LLC, priority 2019, dated 2020).
Read-outs that look alike come from different tables or passages of the source.

Key:
JAK1 = JAK1 (Homo sapiens (Human), UniProt P23458); test: Biochemical JAK and Tyk2 kinase assays (LanthaScreen): JAK1; settings: 1 h pre-incubation, ATP at Km; pIC50 converted to pKi by Cheng-Prusoff
Experimental: (§1) Assay 1: Biochemical JAK and Tyk2 Kinase Assays
(§2) A panel of four LanthaScreen JAK biochemical assays (JAK1, 2, 3 and Tyk2) were carried in a common kinase reaction buffer (50 mM HEPES, pH 7.5, 0.01% Brij-35, 10 mM MgCl2, and 1 mM EGTA). Recombinant GST-tagged JAK enzymes and a GFP-tagged STAT1 peptide substrate were obtained from Life Technologies.
(§3) Serially or discretely diluted compounds were pre-incubated with each of the four JAK enzymes and the substrate in white 384-well microplates (Corning) at ambient temperature for 1 h. ATP was subsequently added to initiate the kinase reactions in 10 μL total volume, with 1% DMSO. […] Kinase reactions were allowed to proceed for 1 hour at ambient temperature before a 10 μL preparation of EDTA (10 mM final concentration) and Tb-anti-pSTAT1 (pTyr701) antibody (Life Technologies, 2 nM final concentration) in TR-FRET dilution buffer (Life Technologies) was added. The plates were allowed to incubate at ambient temperature for 1 h before being read on the EnVision reader (Perkin Elmer). Emission ratio signals (520 nm/495 nm) were recorded and utilized to calculate the percent inhibition values based on DMSO and background controls.
(§4) For dose-response analysis, percent inhibition data were plotted vs. compound concentrations, and IC50 values were determined from a 4-parameter robust fit model with the Prism software (GraphPad Software). Results were expressed as pIC50 (negative logarithm of IC50) and subsequently converted to pKi (negative logarithm of dissociation constant, Ki) using the Cheng-Prusoff equation.

JAK2 = JAK2 (Homo sapiens (Human), UniProt O60674); test: Biochemical JAK and Tyk2 kinase assays (LanthaScreen): JAK2; settings: 1 h pre-incubation, ATP at Km; pIC50 converted to pKi by Cheng-Prusoff
Experimental: as §1, §2, §3, §4

JAK3 = JAK3 (Homo sapiens (Human), UniProt P52333); test: Biochemical JAK and Tyk2 kinase assays (LanthaScreen): JAK3; settings: for Ki: read-out: JAK 3 (pKi) (converted); for JAK3 (pKi)-JAK1 (pKi): difference of pKi values, selectivity JAK3 over JAK1
Experimental: as §1, §2, §3, §4

Tyk2 = Tyk2 (Homo sapiens (Human), UniProt P29597); test: Biochemical JAK and Tyk2 kinase assays (LanthaScreen): Tyk2; settings: 1 h pre-incubation, ATP at Km; pIC50 converted to pKi by Cheng-Prusoff
Experimental: as §1, §2, §3, §4

[1] = test system: IL-2 stimulated pSTAT5 in Tall-1 T cells (JAK3); test: Cellular JAK3 potency assay: inhibition of IL-2 stimulated pSTAT5 in Tall-1 T cells; type: cell-based; settings: IL-2 300 ng/ml, pSTAT5 AlphaLisa, Tall-1 human T cell line; read-out: Tall-1 (pIC50) (converted)
Experimental: Assay 2: Cellular JAK3 Potency Assay: Inhibition of IL-2 Stimulated pSTAT5 in Tall-1 T Cells
The potency of test compounds for inhibition of interleukin-2 (IL-2) stimulated STATS phosphorylation was measured in the Tall-1 human T cell line (DSMZ) using AlphaLisa. Because IL-2 signals through JAK3, this assay provides a measure of JAK3 cellular potency.
Phosphorylated STATS was measured via the AlphaLISA SureFire Ultra pSTAT5 (Tyr694/699) kit (PerkinElmer).
Human T cells from the Tall-1 cell line were cultured in a 37° C., 5% CO2 humidified incubator in RPMI (Life Technologies) supplemented with 15% Heat Inactivated Fetal Bovine Serum (FBS, Life Technologies), 2 mM Glutamax (Life Technologies), 25 mM HEPES (Life Technologies) and 1× Pen/Strep (Life Technologies). Compounds were serially diluted in DMSO and dispensed acoustically to empty wells. Assay media (phenol red-free DMEM (Life Technologies) supplemented with 10% FBS (ATCC)) was dispensed (4 μL/well) and plates shaken at 900 rpm for 10 mins. Cells were seeded at 45,000 cells/well in assay media (4 μL/well), and incubated at 37° C., 5% CO2 for 1 hour, followed by the addition of IL-2 (R&D Systems; final concentration 300 ng/ml) in pre-warmed assay media ([…]) for 30 minutes. After cytokine stimulation, cells were lysed with 6 ul of 3× AlphaLisa Lysis Buffer (PerkinElmer) containing 1× PhosStop and Complete tablets (Roche). The lysate was shaken at 900 rpm for 10 minutes at room temperature (RT). Phosphorylated STATS was measured via the pSTAT5 AlphaLisa kit (PerkinElmer). Freshly prepared acceptor bead mixture was dispensed onto lysate (5 μL) under green filtered <100 lux light. Plates were shaken at 900 rpm for 2 mins, briefly spun down, and incubated for 2 hrs at RT in the dark. Donor beads were dispensed (5 μL) under green filtered <100 lux light. Plates were shaken at 900 rpm for 2 minutes, briefly spun down, and incubated overnight at RT in the dark. Luminescence was measured with excitation at 689 nm and emission at 570 nm using an EnVision plate reader (PerkinElmer) under green filtered <100 lux light.
To determine the inhibitory potency of test compounds in response to IL-2, the average emission intensity of beads bound to pSTAT5 was measured in a human T cell line. IC50 values were determined from analysis of the inhibition curves of signal intensity versus compound concentration. Data are expressed as pIC50 (negative decadic logarithm IC50) values (mean±standard deviation).

[2] = 1 h pre-incubation, ATP at Km, pIC50 converted to pKi by Cheng-Prusoff

Chain of Tyk2 (P29597 whole entry): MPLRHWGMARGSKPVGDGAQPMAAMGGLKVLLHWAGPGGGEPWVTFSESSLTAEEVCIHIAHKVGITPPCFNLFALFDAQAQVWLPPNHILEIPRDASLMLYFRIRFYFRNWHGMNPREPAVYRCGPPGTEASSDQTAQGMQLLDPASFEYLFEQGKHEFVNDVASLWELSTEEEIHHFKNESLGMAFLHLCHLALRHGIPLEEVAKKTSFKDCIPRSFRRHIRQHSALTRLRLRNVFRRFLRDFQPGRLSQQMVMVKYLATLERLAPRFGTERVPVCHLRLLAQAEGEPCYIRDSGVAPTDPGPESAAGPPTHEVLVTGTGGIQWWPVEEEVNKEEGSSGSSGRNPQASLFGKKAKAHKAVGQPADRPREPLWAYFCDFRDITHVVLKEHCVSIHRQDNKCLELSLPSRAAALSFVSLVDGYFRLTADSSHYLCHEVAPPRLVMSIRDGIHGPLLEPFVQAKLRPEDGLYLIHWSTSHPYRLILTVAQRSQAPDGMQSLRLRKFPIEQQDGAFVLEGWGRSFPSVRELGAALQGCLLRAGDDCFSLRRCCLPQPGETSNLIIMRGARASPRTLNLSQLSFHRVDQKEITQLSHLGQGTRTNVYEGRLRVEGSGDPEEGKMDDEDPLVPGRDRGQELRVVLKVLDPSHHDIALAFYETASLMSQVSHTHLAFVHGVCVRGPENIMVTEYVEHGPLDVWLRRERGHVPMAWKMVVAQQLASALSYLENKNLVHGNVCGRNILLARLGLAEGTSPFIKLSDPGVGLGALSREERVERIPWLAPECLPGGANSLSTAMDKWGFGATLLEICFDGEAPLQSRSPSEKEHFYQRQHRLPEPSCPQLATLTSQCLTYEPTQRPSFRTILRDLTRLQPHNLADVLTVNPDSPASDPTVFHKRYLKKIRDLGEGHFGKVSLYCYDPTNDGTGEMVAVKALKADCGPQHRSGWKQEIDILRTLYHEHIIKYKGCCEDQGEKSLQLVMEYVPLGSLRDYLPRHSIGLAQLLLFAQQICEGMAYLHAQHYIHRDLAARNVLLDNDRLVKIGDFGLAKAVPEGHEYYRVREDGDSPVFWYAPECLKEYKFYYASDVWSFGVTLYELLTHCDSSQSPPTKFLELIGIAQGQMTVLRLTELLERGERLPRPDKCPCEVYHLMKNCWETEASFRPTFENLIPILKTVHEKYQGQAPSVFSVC
Chain of JAK1 (P23458 whole entry): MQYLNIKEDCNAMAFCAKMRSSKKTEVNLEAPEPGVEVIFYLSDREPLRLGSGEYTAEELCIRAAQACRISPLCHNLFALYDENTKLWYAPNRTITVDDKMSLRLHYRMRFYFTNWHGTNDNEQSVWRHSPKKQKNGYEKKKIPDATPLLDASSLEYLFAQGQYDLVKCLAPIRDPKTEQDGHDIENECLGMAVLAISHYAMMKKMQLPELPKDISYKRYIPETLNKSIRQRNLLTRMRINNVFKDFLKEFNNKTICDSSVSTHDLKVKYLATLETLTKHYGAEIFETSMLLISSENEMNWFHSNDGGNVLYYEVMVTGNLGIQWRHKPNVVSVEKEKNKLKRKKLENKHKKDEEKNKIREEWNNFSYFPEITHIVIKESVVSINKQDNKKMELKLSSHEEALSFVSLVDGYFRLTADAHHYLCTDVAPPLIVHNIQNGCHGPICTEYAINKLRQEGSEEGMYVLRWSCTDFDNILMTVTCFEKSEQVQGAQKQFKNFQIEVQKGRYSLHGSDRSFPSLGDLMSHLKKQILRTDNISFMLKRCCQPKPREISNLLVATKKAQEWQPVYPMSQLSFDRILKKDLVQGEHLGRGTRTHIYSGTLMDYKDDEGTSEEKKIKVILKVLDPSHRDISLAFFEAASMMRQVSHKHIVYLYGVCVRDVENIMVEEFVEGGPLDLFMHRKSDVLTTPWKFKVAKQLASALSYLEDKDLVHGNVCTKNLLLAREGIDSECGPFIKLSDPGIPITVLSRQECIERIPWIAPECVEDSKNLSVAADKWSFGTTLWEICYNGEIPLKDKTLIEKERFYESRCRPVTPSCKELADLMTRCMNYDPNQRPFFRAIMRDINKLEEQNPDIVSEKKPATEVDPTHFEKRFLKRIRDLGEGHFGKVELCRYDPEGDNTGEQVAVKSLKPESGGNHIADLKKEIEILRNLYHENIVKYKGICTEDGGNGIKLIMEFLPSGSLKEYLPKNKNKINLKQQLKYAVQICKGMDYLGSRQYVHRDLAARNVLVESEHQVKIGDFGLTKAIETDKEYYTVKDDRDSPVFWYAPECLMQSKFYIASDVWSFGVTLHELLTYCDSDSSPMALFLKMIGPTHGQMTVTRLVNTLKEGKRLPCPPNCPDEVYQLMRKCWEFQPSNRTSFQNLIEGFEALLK
Chain of JAK3 (P52333 whole entry): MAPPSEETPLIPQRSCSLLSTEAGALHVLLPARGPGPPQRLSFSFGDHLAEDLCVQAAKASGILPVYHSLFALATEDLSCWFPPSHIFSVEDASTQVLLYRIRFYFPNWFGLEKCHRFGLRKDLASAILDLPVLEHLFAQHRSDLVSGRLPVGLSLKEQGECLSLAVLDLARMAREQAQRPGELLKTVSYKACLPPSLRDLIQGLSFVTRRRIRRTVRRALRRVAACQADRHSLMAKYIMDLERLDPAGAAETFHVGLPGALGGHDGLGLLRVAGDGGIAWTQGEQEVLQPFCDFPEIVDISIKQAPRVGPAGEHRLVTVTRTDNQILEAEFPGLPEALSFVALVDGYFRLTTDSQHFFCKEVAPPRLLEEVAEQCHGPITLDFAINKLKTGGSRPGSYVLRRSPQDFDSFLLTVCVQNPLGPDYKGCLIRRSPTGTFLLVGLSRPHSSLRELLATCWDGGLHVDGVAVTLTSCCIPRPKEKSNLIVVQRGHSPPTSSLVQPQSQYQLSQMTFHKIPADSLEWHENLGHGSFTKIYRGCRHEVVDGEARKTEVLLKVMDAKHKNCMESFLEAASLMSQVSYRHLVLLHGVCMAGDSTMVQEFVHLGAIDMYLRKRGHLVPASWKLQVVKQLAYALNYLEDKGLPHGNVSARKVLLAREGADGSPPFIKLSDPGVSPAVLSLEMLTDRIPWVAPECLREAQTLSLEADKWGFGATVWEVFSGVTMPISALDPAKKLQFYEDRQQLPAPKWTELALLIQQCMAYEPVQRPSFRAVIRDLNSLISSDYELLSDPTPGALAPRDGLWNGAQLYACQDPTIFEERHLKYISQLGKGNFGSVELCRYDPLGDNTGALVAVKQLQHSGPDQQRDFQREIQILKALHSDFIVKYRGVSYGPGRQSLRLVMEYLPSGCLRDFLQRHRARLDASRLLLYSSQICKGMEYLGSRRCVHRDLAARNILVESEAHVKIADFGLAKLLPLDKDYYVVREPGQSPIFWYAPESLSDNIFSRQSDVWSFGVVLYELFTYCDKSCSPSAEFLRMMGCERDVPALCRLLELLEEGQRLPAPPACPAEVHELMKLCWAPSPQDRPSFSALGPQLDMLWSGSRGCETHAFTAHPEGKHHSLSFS
Chain of JAK2 (O60674 whole entry): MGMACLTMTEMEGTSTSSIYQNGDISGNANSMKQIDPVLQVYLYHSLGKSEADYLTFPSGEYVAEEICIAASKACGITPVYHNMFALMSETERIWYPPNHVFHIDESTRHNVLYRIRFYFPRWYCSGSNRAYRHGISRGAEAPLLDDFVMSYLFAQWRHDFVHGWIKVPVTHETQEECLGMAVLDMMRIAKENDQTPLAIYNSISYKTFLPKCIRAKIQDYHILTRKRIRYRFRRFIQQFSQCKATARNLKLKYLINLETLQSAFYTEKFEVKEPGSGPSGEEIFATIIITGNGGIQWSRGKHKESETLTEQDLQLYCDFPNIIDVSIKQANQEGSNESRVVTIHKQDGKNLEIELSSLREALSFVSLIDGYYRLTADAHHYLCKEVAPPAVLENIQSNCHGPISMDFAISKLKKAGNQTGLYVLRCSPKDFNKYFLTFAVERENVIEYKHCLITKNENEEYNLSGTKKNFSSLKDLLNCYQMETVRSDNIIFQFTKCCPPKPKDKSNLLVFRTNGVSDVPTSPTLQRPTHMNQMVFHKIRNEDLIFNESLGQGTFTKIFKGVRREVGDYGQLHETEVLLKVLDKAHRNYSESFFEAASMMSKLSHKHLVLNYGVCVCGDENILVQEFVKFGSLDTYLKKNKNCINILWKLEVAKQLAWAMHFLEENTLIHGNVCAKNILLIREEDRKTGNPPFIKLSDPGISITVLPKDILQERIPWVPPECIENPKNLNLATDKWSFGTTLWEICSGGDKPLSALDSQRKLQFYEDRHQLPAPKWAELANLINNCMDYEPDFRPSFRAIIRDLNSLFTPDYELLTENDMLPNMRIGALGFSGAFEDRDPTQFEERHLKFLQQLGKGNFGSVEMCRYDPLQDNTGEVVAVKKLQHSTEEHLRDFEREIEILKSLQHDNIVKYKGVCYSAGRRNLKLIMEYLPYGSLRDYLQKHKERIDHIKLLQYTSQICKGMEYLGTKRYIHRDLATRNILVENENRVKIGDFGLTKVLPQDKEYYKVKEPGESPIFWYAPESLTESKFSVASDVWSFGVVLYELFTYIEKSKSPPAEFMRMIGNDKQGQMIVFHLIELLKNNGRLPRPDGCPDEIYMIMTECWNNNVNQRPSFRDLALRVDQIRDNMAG

SMILES	JAK 1 (pKi) (JAK1)	JAK 2 (pKi) (JAK2)	Ki (JAK3; [2]) [µM]	JAK3 (pKi)-JAK1 (pKi) (JAK3)	Tyk 2 (pKi) (Tyk2)	IC50 [1] [µM]	JAK 3 (pKi) (JAK3; [2])	Ki (JAK1) [µM]	Ki (JAK3) [µM]
C=CC(=O)N1CC[C@H](Oc2cc(-c3ccc(O)cc3)cn3cncc23)C1 [Example 1, (S)-1-(3-((6-(4-hydroxyphenyl)imidazo[1,5-a]pyridin-8-yl)oxy)pyrrolidin-1-yl)prop-2-en-1-one]	E (E represents a pKi value of 7 or below (Ki of 100 nM or above))	E (E represents a pKi value of 7 or below (Ki of 100 nM or above))	0.0001 to 0.001	A (A represents a value of 3 or above)	E (E represents a pKi value of 7 or below (Ki of 100 nM or above))	0.2 to 1			
C=CC(=O)N1CC2(CCC2Oc2cc(-c3ccc(O)cc3)cn3cncc23)C1 (centres unmarked) [Example 3, 1-(5-((6-(4-hydroxyphenyl)imidazo[1,5-a]pyridin-8-yl)oxy)-2-azaspiro[3.3]heptan-2-yl)prop-2-en-1-one]	E (E represents a pKi value of 7 or below (Ki of 100 nM or above))	E (E represents a pKi value of 7 or below (Ki of 100 nM or above))	0.0001 to 0.001	A (A represents a value of 3 or above)	E (E represents a pKi value of 7 or below (Ki of 100 nM or above))	0.0316 to 0.2			
C=CC(=O)N1CCC(Nc2cc(-c3ccc(O)cc3)cn3cncc23)CC1 [Example 4, 1-(4-((6-(4-hydroxyphenyl)imidazo[1,5-a]pyridin-8-yl)amino)piperidin-1-yl)prop-2-en-1-one]	E (E represents a pKi value of 7 or below (Ki of 100 nM or above))	E (E represents a pKi value of 7 or below (Ki of 100 nM or above))	0.001 to 0.01	B (B represents a value of 2.3 to 3)	E (E represents a pKi value of 7 or below (Ki of 100 nM or above))				
CN(C)C/C=C/C(=O)N1CC(COc2cc(-c3ccc(O)c(Cl)c3)cn3cncc23)C1 [Example 23]	E (E represents a pKi value of 7 or below (Ki of 100 nM or above))	E (E represents a pKi value of 7 or below (Ki of 100 nM or above))	0.0001 to 0.001	A (A represents a value of 3 or above)	E (E represents a pKi value of 7 or below (Ki of 100 nM or above))	0.2 to 1			
C=CC(=O)N1CC[C@H](COc2cc(-c3ccc(O)cc3)cn3cncc23)C1 [Example 26]	E (E represents a pKi value of 7 or below (Ki of 100 nM or above))	E (E represents a pKi value of 7 or below (Ki of 100 nM or above))	0.0001 to 0.001	A (A represents a value of 3 or above)	E (E represents a pKi value of 7 or below (Ki of 100 nM or above))	0.2 to 1			
C=CC(=O)N1CCC[C@H](Oc2cc(-c3ccc(O)cc3)cn3cncc23)C1 [Example 27]	E (E represents a pKi value of 7 or below (Ki of 100 nM or above))	E (E represents a pKi value of 7 or below (Ki of 100 nM or above))	0.0001 to 0.001	A (A represents a value of 3 or above)	E (E represents a pKi value of 7 or below (Ki of 100 nM or above))	0.2 to 1			
C=CC(=O)N1CC2(CC(Oc3cc(-c4ccc(O)cc4)cn4cncc34)C2)C1 [Example 37]	E (E represents a pKi value of 7 or below (Ki of 100 nM or above))	E (E represents a pKi value of 7 or below (Ki of 100 nM or above))	0.0001 to 0.001	A (A represents a value of 3 or above)	E (E represents a pKi value of 7 or below (Ki of 100 nM or above))	0.2 to 1			
C=CC(=O)N1CC[C@@H](Oc2cc(-c3ccc(O)cc3)cn3cncc23)C[C@@H]1C [Example 39]	E (E represents a pKi value of 7 or below (Ki of 100 nM or above))	E (E represents a pKi value of 7 or below (Ki of 100 nM or above))		A (A represents a value of 3 or above)	E (E represents a pKi value of 7 or below (Ki of 100 nM or above))	0.0316 to 0.2	A (A represents a pKi value≥10 (Ki≤0.1 nM))		
C=CC(=O)N1CC[C@@H](Oc2cc(-c3ccc(O)cc3)cn3cncc23)[C@@H](C)C1 [Example 41]	E (E represents a pKi value of 7 or below (Ki of 100 nM or above))	E (E represents a pKi value of 7 or below (Ki of 100 nM or above))		A (A represents a value of 3 or above)	E (E represents a pKi value of 7 or below (Ki of 100 nM or above))	0.0316 to 0.2	A (A represents a pKi value≥10 (Ki≤0.1 nM))		
C=CC(=O)N1CC(COc2cc(-c3ccc(O)cc3C)cn3cncc23)C1 [Example 44]	E (E represents a pKi value of 7 or below (Ki of 100 nM or above))	E (E represents a pKi value of 7 or below (Ki of 100 nM or above))	0.0001 to 0.001	A (A represents a value of 3 or above)	E (E represents a pKi value of 7 or below (Ki of 100 nM or above))	0.0316 to 0.2			
C=CC(=O)N1CCC(Oc2cc(-c3cc(F)c(O)cc3CC)cn3cncc23)CC1 [Example 47]				B (B represents a value of 2.3 to 3)		≤ 0.0316	A (A represents a pKi value≥10 (Ki≤0.1 nM))	0.01 to 0.1	
C=CC(=O)N1[C@@H]2CC[C@H]1C[C@H](Oc1cc(-c3cc(F)c(O)cc3CC)cn3cncc13)C2 [Example 48]				A (A represents a value of 3 or above)		≤ 0.0316	A (A represents a pKi value≥10 (Ki≤0.1 nM))	0.01 to 0.1	
C=CC(=O)N1CCC(Oc2cc(-c3cc(F)c(O)cc3CC)cn3cncc23)C(F)(F)C1 (centres unmarked) [Example 49]				C (C represents a value of 1.8 to 2.3)		≤ 0.0316		0.01 to 0.1	0.0001
